This note sets out measurements from BindingDB's records for doi:10.7270/Q2S180TW (Burnham Center For Chemical Genomics, 2008).

This assay addresses Heat shock 70 kDa protein 1A (Homo sapiens, UniProt V9GZ37). Put plainly: small molecules displacing fluorescent ligand from Hsp70 – biochemical, fluorescence polarization, primary screen (AID 583). As to conditions: pH 7; 23 °C.

Heat shock 70 kDa protein 1A, sequence (V9GZ37 whole entry): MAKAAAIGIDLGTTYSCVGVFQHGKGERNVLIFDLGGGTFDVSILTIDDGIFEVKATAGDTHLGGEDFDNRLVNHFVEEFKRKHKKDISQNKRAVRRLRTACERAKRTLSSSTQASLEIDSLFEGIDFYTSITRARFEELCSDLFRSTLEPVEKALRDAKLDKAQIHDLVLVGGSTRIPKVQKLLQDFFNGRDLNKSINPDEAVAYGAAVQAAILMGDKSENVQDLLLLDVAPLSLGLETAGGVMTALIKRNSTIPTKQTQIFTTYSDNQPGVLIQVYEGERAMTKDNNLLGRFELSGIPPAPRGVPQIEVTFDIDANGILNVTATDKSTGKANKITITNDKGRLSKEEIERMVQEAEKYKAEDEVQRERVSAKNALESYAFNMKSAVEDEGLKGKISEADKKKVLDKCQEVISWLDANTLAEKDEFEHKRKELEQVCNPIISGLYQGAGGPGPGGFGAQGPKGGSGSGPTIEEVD

Consider `CC(=O)N1CCC2(CC1)c1c(n[nH]c1C)OC(=N)C2C#N` (configuration not stated) [6-azanyl-1'-ethanoyl-3-methyl-spiro[2H-pyrano[2,3-c]pyrazole-4,4'-piperidine]-5-carbonitrile], for which the 50% inhibitory concentration (IC50) stood at 100 µM.
Regarding `C=c1[nH]n(-c2cccc(C(=O)O)c2)c(=O)c1=CC=Cc1ccco1` [SMR000113614], the concentration for half-maximal inhibition (IC50) worked out at 21.7 µM.
